Experiments:
[1] = system: Cortical bone formation rate (BFR); experiment: Cortical bone histomorphometry, bone formation rate (BFR); format: in vivo; conditions: AUC 0-4 hr, mice
Method: During the in-life portion of each study, mice received two intraperitoneal (i.p.) injections (20 mg/kg, […]) of calcein (C-0875; Sigma-Aldrich, St. Louis, Mo.) on days 1 and 26 for bone histomorphometry measurements. Calcein incorporates into the bone mineral and allows measurement of bone formation rate. Calcein was dissolved in 2% sodium bicarbonate. During the tissue harvest, the left tibiae were excised and cleaned for cortical histomorphometry measurements. After all skin and muscle were removed, tibiae were placed in 70% ethanol 4° C.) in the dark for a minimum of 24 hours.
Ground transverse sections were used for histomorphometric analysis of cortical bone. Bones were sectioned using a low-speed saw (Isomet, Buehler, Lake Bluff, Ill.) equipped with a diamond wafer blade. The end of each tibia was removed proximal to tibia-fibula synostosis and a […] cross-section was cut. Using a roughened glass plate and a cork, sections were ground to […] until transparent and all labels were distinguishable under a fluorescent microscope. Sections were dehydrated using the following solutions for a minimum of two minutes each: 1) 70% ethanol, 2) 95% ethanol, 3) 100% ethanol, 4) 50/50 ethanol/xylene, and 5) xylene (twice) (#534056; Sigma-Aldrich, St. Louis, Mo.). Sections were mounted using Eukitt Quick Mounting Medium (#03989, Sigma-Aldrich, St. Louis, Mo.) after which coverslip was applied. Using the Osteomeasure Bone Analysis Program (Osteometrics, Inc., Decatur, Ga.), bone formation rate was calculated by tracing the 1st and […] fluorescent labels and the inner and outer perimeter of the bone. Bone formation rate was calculated by the following equation: (Inter-label width/Label interval)*(Labeled perimeter/Bone perimeter). At least five samples were measured from each treatment group in each study.

[2] = system: house dust mite-induced BAL inflammatory cell influx; experiment: House dust mite model of asthma, BAL inflammatory cell influx; format: in vivo, Mice; conditions: 0.1, 1 and 10 mg/kg, p.o., b.i.d.
[3] = system: Mouse Collagen-Induced Arthritis (mCIA); experiment: Therapeutic mouse collagen-induced arthritis (mCIA) model; format: in vivo, Male DBA/J mice; conditions: Mus musculus; mice, dosing day 34 through day 49; read-out: Therapeutic mCIA (ED80 dose)
Source text: Mouse Collagen-induced arthritis is a commonly used chronic, preclinical model of rheumatoid arthritis in which joint swelling and bone destruction occur following immunization with type II collagen. Reduction of disease incidence and severity has been shown previously to be predictive of disease-modification and signs and symptoms mitigation, respectively, in a clinical setting.
In the therapeutic mCIA model, induction of disease incidence and severity was synchronized via LPS stimulation. Male DBA/J mice were immunized with 100 ug of bovine type II collagen (bCII) on day 0. All mice received an intraperitoneal injection of 20 μg of LPS on day 28 and disease was allowed to develop through day 34. At day 34, all mice had disease (incidence=100%) with an average severity score of seven. Dosing of compounds was initiated in the therapeutic mode on day 34 and continued through day 49. Different treatments were compared by measuring the decrease in incidence (i.e., resolution of disease) and the decrease in severity of paw swelling over time.

[4] = Oral dosing in portal vein-cannulated rats, portal vein plasma; format: in vivo; conditions: oral dosing of Example 2 (30 and 200 mg/kg), four-hour time period
Serum osteocalcin = Serum osteocalcin suppression, 28-day repeat dose mouse model; format: in vivo, Swiss Webster female mice; conditions: mice
Method: The compounds were weighed and suspended in a vehicle of 0.5% methylcellulose/0.025% tween 20 (Sigma-Aldrich, St. Louis, Mo.). Compound suspensions were homogenized using a Polytron PT-3100 tissue homogenizer to create a very fine suspension and were then sonicated for 10 minutes using a water bath sonicator. Aliquots of each suspension were made for daily dosing at 0.2 ml/dose. Swiss Webster female mice, 10-12 weeks old, 28-29 grams, (Taconic, Germantown, N.Y.) were used in accordance with the guidelines of the Institutional Animal Care and Use Committee and in accordance with NIH guidelines on laboratory animal welfare. Mice were acclimated in the Pfizer animal facility for three to seven days prior to being utilized in a study. […] Each treatment group contained 5-10 mice. To establish a dosing regimen for the studies, a pilot pharmacodynamic time course experiment was conducted to quantify TNFα repression after a single ED80 dose.
Body weights were measured on the first and last day of each experiment. Blood samples were obtained after three weeks of dosing for a steady-state pharmacokinetic (PK) analysis. To assess compound effects on LPS-induced TNFα, all mice received an intraperitoneal injection of LPS (Salmonella typhosa, L-7895; Sigma-Aldrich, St. Louis) 2.5 hr after the last dose on day 28. Mice were sacrificed 90 minutes after LPS administration. Serum samples were quantified for osteocalcin and TNFα using the multiplex assays (Linco Research, Inc, St. Charles, Mo.; Luminex 100, Austin, Tex.). Samples were diluted 1:20 and the assay was run according to manufacturer's instructions. The osteocalcin standard was purchased separately (Biomedical Technologies Inc., Stoughton, Mass.). Mice were fasted for 4 hours before serum was collected for TNFα, and osteocalcin levels. For each experiment, outliers were detected by calculating the number of standard deviations from the mean of the group. If the value being examined was more than 2.5 standard deviations from the mean, it was excluded from the rest of the calculations.
The individual mouse percent inhibition values were fit to a four-parameter logistic model using the dose mean for each group.
ED50 and ED80 values were obtained for the various endpoints using a four-parameter logistic fit. For compounds which were tested multiple times, ED50 and ED80 values were obtained using four-parameter logistic fits of the combined data from multiple experiments.

Cc1ncccc1NC(=O)c1ccc2c(c1)CC[C@@H]1C[C@@](O)(C(F)(F)F)CC[C@@]21Cc1ccccc1 [Example 1, (4βS,7R,8αR)-4β-benzyl-7-hydroxy-N-(2-methylpyridin-3-yl)-7-(trifluoromethyl)-4β,5,6,7,8,8α,9,10-octahydrophenanthrene-2-carboxamide]
Cortical bone formation rate (BFR) EAUC50 [1]: 0.27 µg·h/mL | cell infiltration into BAL fluid [2]: mitigated cell infiltration into BAL fluid dose-dependently | ED80 [3]: < 2 mg/kg | detection in portal vein plasma samples [4]: detection of Example 1 | Serum osteocalcin EAUC50 (Serum osteocalcin; AUC 0-4 hr): 1.30 µg·h/mL | Serum osteocalcin EAUC80 (Serum osteocalcin; AUC 0-4 hr): 4.20 µg·h/mL | Osteocalcin Suppression (ED80 dose) (Serum osteocalcin; oral gavage 28 days, serum osteocalcin): >10 mg/kg

Reference: patent publication US7786097B2, “Tricyclic compounds, compositions and methods” (Pfizer Inc., priority 2007, dated 2010)
